target: T1, Jak3 (Homo sapiens, UniProt P52333); assay: Jak3 enzyme data for selected compounds; format: biochemical
T1 construct: Jak3 enzyme (aa 811-1103); expressed in SF9 cells as a GST fusion; GST; made in house; host or cells: SF9 insect cells
T1 sequence (P52333 811-1103): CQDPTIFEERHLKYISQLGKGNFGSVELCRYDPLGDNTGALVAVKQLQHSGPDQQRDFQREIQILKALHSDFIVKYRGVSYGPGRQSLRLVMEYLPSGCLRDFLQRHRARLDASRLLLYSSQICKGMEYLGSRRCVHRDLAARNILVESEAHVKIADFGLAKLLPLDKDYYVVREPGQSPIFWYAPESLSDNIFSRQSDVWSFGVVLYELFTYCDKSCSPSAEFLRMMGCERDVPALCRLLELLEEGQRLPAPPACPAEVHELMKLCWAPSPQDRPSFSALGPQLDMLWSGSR

SMILES | IC50 [nM]
CC[C@H]1C[C@@H](COc2cnc(C#N)cn2)C[C@H]1c1nnc2cnc3[nH]ccc3n12 (single isomer, unassigned) [AA.1.42, 5-((cis-3-ethyl-4-(6H-pyrrolo[2,3-e][1,2,4]triazolo[4,3-a]pyrazin-1-yl)cyclopentyl)methoxy)-pyrazine-2-carbonitrile] | > 1000
CC[C@@H]1C[C@H](Nc2ncc(C#N)s2)C[C@@H]1c1nnc2cnc3[nH]ccc3n12 [Example #8, 2-((1S,3R,4S)-3-ethyl-4-(6H-pyrrolo[2,3-e][1,2,4]triazolo[4,3-a]pyrazin-1-yl)cyclopentylamino)thiazole-5-carbonitrile] | 100 to 1000
CC[C@H]1C[C@@H](NS(=O)(=O)C2CC2)C[C@]1(F)c1nnc2cnc3[nH]ccc3n12 (single isomer, unassigned) [AA.1.44, N-(cis-4-ethyl-3-fluoro-3-(6H-pyrrolo[2,3-e][1,2,4]triazolo[4,3-a]pyrazin-1-yl)cyclopentyl)cyclo-propanesulfonamide] | 100 to 1000
CC[C@@H]1C[C@@H](Oc2ccc(C#N)cn2)C[C@@H]1c1nnc2cnc3[nH]ccc3n12 (single isomer, unassigned) [AA.1.29, 6-(3-ethyl-4-(6H-pyrrolo[2,3-e][1,2,4]triazolo[4,3-a]pyrazin-1-yl)cyclopentyloxy)-nicotinonitrile] | > 1000
CC[C@@H]1C[C@H](NS(=O)(=O)CCN2CCOCC2)C[C@@H]1c1nnc2cnc3[nH]ccc3n12 [D.1.61] | > 1000
N#Cc1ccc(N[C@@H]2CC[C@@H](c3ncc4cnc5[nH]ccc5n34)C2)cc1 (single isomer, unassigned) [AA.1.3] | 100 to 1000
C[C@@H]1C[C@H](Nc2cnc(C#N)cn2)C[C@@H]1c1ncc2cnc3[nH]ccc3n12 [D.2.21] | 100 to 1000
O=S(=O)(NC12CCC(c3ccc4cnc5[nH]ccc5n34)(CC1)CC2)C1CC1 [D.1.76] | 100 to 1000

Results, then the compound that gave them:

IC50 [nM] | SMILES
100 to 1000 | CC[C@H]1C[C@@H](OCc2ccc(OC)cc2)C[C@@H]1c1n[nH]c2cnc3[nH]ccc3c12 (single isomer, unassigned) [Example #30]
100 to 1000 | O=S(=O)(CCC(F)(F)F)NC[C@H]1CC[C@@H](c2ncc3cnc4[nH]ccc4n23)C1 (single isomer, unassigned) [AA.1.62]
100 to 1000 | CC[C@@H]1C[C@H](NS(=O)(=O)N2CC(C#N)C2)C[C@@H]1c1nnc2cnc3[nH]ccc3n12 [D.2.5]
< 100 | C[C@@H]1CCN(c2cnc(C#N)cn2)C[C@@H]1c1ncc2cnc3[nH]ccc3n12 (racemic) [L.1.2]
100 to 1000 | O=C(N1CCC(F)(F)CC1)N1CCC[C@@H](c2cnc3cnc4[nH]ccc4n23)C1 (single isomer, unassigned) [AA.1.9, (3-(3H-imidazo[1,2-a]pyrrolo[2,3-e]pyrazin-8-yl)piperidin-1-yl)(4,4-difluoropiperidin-1-yl)methanone]
100 to 1000 | O=C(N1CCC[C@@H](c2ncc3cnc4[nH]ccc4n23)C1)N1CCCC(F)(F)C1 [J.3.7]
< 100 | N#Cc1cnc(N2CCC[C@@H](c3cnc4cnc5[nH]ccc5n34)C2)s1 (single isomer, unassigned) [AA.1.22, 2-(3-(3H-imidazo[1,2-a]pyrrolo[2,3,-e]pyrazin-8-yl)piperidin-1-yl)thiazole-5-carbonitrile]
< 100 | C[C@@H]1CCN(C(=O)N2CCC[C@H]2C)C[C@@H]1c1ncc2cnc3[nH]ccc3n12 [J.2.13]
< 100 | O=C(N1CCC[C@@H](c2ncc3cnc4[nH]ccc4n23)C1)N1CCC(F)(F)C1 [J.3.2]
< 100 | CC[C@@H]1C[C@H](NS(=O)(=O)c2ccc(F)c(Cl)c2)C[C@@H]1c1cnc2cnc3[nH]ccc3n12 (single isomer, unassigned) [AA.1.92, 3-chloro-N-(3-ethyl-4-(3H-imidazo[1,2-a]pyrrolo[2,3-e]pyrazin-8-yl)cyclopentyl)-4-fluorobenzenesulfonamide]
< 100 | C[C@@H]1CCN(C(=O)C2CC(F)(F)C2)C[C@@H]1c1ncc2cnc3[nH]ccc3n12 [H.1.21]
< 100 | CC[C@@H]1C[C@H](NS(=O)(=O)CCC(F)(F)F)CN1c1cnc2cnc3[nH]ccc3n12 [K.4.1]

From USRE47221E1, “Tricyclic compounds” (AbbVie Inc., priority 2009, dated 2019)
